Consider five molecules from patent US7396645B1, “Cholestasis signature” (priority 2002, dated 2008).

Like-named read-outs stand apart in the source and are kept apart here. Marks after values point to notes of the source that are not given here.

One data set has as its system livers of rats. Conditions: for bile duct hyperplasia: in most animals. As to the method: (§1) After determination of the MTD and FED for a compound, each compound was dissolved in a vehicle for administration on day 1 of the study (additional daily doses were stored as frozen aliquots from this initial formulation). Each compound was administered to three individual male Sprague-Dawley rats for each of the two doses (MTD and FED) for one of four different times (0.25 day, 1 day, 3 days, and 5 days), yielding a total of up to 24 animals per compound study. Vehicle choice was based on solubility of the compound, effect of food on adsorption, and the vehicles used in the literature reports examined during the FED selection investigations, described above. Generally, the route and vehicle in which the FED was defined are used. When there was a choice of routes and vehicles, oral routes were chosen over injection routes. Many compounds, especially oncolytics, are only administerable intravenously. In such cases, the compound was administered as an intravenous formulation into the tail vein. Orally administered compounds were given dissolved in either water, 1% carboxymethycellulose (CMC) or corn oil. Intravenously and intraperitoneally administered compounds were given in 0.9% saline. Subcutaneously administered compounds were given in corn oil. Animal body weights were determined at 1 day and, where appropriate, at 4 days, before necropsy, and clinical observations were made on a daily basis. Control animals were dosed with vehicle only. Three male animals were used for each dose and time combination used for the compound treatment.
(§2) Tissue Harvest and Handling: After the allocated treatment time, the tissues from the animals were harvested. […] All the tissues collected were divided to provide samples for histopathological analyses, and the remainder of each tissue was then snap-frozen. […] The parameters were measured using a Hitachi-911 clinical chemistry analysis instrument according to the manufacturer's instructions. The following blood constituents were measured: Blood Urea Nitrogen (BUN), Creatinine (CRE), Glucose (GLU), Alanine Transaminase (ALT), Aspartate Aminotrans-ferase (AST), Alkaline Phosphatase (ALP), Total Bilirubin (TBI), Sodium (SOD), Potassium (POT), Chloride (CHL), Phosphorus (PHO), Total Protein (TPR), Albumin (ALB), Cholesterol (CHO), Creatine Phosphokinase (CPK), Lactate Dehydrogenase (LDH), Carbon Dioxide (CO2), Uric Acid (UA), and Lipase. […] The parameters were measured using a Baker 9000 blood cell analysis instrument according to the manufactures instructions. The following blood constituents were measured: Leukocyte count (WBC), Differential Leukocyte counts, Erythrocyte count (RBC), Hemoglobin concentration (HGB), Hematocrit (HCT), Mean Corpuscular Volume (MCV), Mean Corpuscular Hemoglobin (MCH), Mean Corpuscular Hemoglobin Concentration (MCC), Thrombocyte Count (PLC). Histopathology: Histopathological analyses of hematoxylin and eosin-stained tissue sections were performed and peer-reviewed by board-certified (Diplomate, American College of Veterinary Pathologists) veterinary pathologists. Preparation of Enriched mRNA: Punch Biopsies were Taken from the Frozen Tissues and were completely homogenized before being processed using the MagNA Pure robot. (Roche Diagnostics Corp., Indianapolis, Ind.) in combination with the MagNA Pure LC RNA Isolation kit II (Roche Diagnostics Corp). The amount of lysis buffer was adjusted to allow 1 ml per 50 mg for liver tissue, or 1 ml per 80 mg for all other tissues. After complete homogenization and before loading of the samples into the 32-well MagNA Pure plate, the samples were syringed 5-6 times using a 20-gauge 3-ml syringe to ensure a smooth solution for robotic processing. Tissue sample processing was performed in duplicate wells (loading 150 μl of homogenized sample and 150 μl of additional lysis buffer to each well) of the MagNA Pure LC, which is programmed to extract mRNA using oligo-dT selection technology into a final elution volume of 100 μl.

Another data set relates to Cholestasis Signature. Here is the method: as §1, §2
For the next data set, the system named is male Sprague-Dawley rats. Conditions: rat.
Description: Compound dosing was based on the acute dose LD50s recorded in published reference or literature sources. […] The MTD (maximum tolerated dose) was then selected as the dose at which the animals […] 5-10% body weight during the 5-day range finding study. […] In addition, the clinical observations must show no or mild clinical signs during the whole of the range-finding study. At the next highest dose, signs and symptoms of adverse effects and exceeding those of the MTD should be seen to occur. Should these criteria not be met, the range-finding study is repeated using a modified dose range.
as §1
Tissue Harvest and Handling: After the allocated treatment time, the tissues from the animals were harvested. […] All the tissues collected were divided to provide samples for histopathological analyses, and the remainder of each tissue was then snap-frozen. […] The parameters were measured using a Hitachi-911 clinical chemistry analysis instrument according to the manufacturer's instructions. The following blood constituents were measured: Blood Urea Nitrogen (BUN), Creatinine (CRE), Glucose (GLU), Alanine Transaminase (ALT), Aspartate Aminotrans-ferase (AST), Alkaline Phosphatase (ALP), Total Bilirubin (TBI), Sodium (SOD), Potassium (POT), Chloride (CHL), Phosphorus (PHO), Total Protein (TPR), Albumin (ALB), Cholesterol (CHO), Creatine Phosphokinase (CPK), Lactate Dehydrogenase (LDH), Carbon Dioxide (CO2), Uric Acid (UA), and Lipase. […] The parameters were measured using a Baker 9000 blood cell analysis instrument according to the manufactures instructions. The following blood constituents were measured: Leukocyte count (WBC), Differential Leukocyte counts, Erythrocyte count (RBC), Hemoglobin concentration (HGB), Hematocrit (HCT), Mean Corpuscular Volume (MCV), Mean Corpuscular Hemoglobin (MCH), Mean Corpuscular Hemoglobin Concentration (MCC), Thrombocyte Count (PLC). Histopathology: Histopathological analyses of hematoxylin and eosin-stained tissue sections were performed and peer-reviewed by board-certified (Diplomate, American College of Veterinary Pathologists) veterinary pathologists.

Setting [1] is: rat liver histopathology, training-set treatments.
The mark [2] stands for this setting: rat liver expression data vs Cholestasis Signature, maximum score of training treatments normalised to 100, dose and time not given.
Setting [3] is: 386 mg/kg orally in corn oil, 3 days, vs vehicle control, average of 3 animals.
The mark [4] stands for this setting: 16 mg/kg orally in corn oil, 3 days, vs vehicle control, average of 3 animals.
[5] abbreviates: 81 mg/kg orally in corn oil, 5 days, vs vehicle control, average of 3 animals.

For the molecule `CC/C(=C(/CC)c1ccc(O)cc1)c1ccc(O)cc1` [DIETHYLSTILBESTROL, 3,4-bis-(4-hydroxyphenyl)-3-hexene], in the data set on livers of rats (rat, in vivo), the “increased hepatocyte enlargement and increased eosinophilic granular cytoplasm” value is listed as “mild to severe”; the “nuclear/cytoplasmic condensation (apoptosis) and/or necrosis in liver” value (from here on “nuclear/cytoplasmic condensation”) is on record as “mild to moderate”. Moreover, in the data set with Cholestasis Signature (rat, in vivo), the “Sequence Projection Score (SPS)” value is on record as 34*. For the same molecule, the “raised serum levels of ALP and TBI compared with vehicle-treated control animals” value in the data set on male Sprague-Dawley rats (in vivo, po) is given as “at least 2 fold”. Besides, in the data set on male Sprague-Dawley rats (in vivo, po, 300 mg/kg), the “Fold change in serum alkaline phosphatase” value is reported as 2.0 fold; the “Fold change in serum alkaline phosphatase and total bilirubin” value turned out to be 11.5 fold; the “Fold change in serum total bilirubin” value turned out to be 5.8 fold.
On to `Cc1ccc(C)c(OCCCC(C)(C)C(=O)O)c1` [GEMFIBROZIL, 5-(2,5-dimethylphenoxy)-2,2-dimethylpentanoic acid], for which, in the data set with livers of rats (rat, in vivo), the “increased hepatocyte enlargement and increased eosinophilic granular cytoplasm” value is on record as “mild to severe”; the “nuclear/cytoplasmic condensation” value was “mild to moderate”. Moreover, the “Sequence Projection Score (SPS)” value in the data set on Cholestasis Signature (rat, in vivo) is reported as 28*. Also, in the data set with male Sprague-Dawley rats (in vivo, po), the “raised serum levels of ALP and TBI compared with vehicle-treated control animals” value is listed as “at least 2 fold”. The “Fold change in serum alkaline phosphatase” value in the data set on male Sprague-Dawley rats (in vivo, po, 700 mg/kg) was 2.1 fold.
For `c1ccc2c(c1)Nc1ccccc1S2` [PHENOTHIAZINE, 2,3:5,6-dibenzo-1,4-thiazine], in the data set on livers of rats (setting [1]), the steatosis entry is recorded as “moderate to very severe”. Moreover, the “Sequence Projection Score (SPS)” value in the data set with Cholestasis Signature (setting [2]) was 49*. For the same molecule, in the data set on male Sprague-Dawley rats (setting [3]), the “Fold change in serum alkaline phosphatase” value is given as −1.1 fold; the “Fold change in serum alkaline phosphatase and total bilirubin” value stood at 3.4 fold; the “Fold change in serum total bilirubin” value was found to be 3.7 fold.
Take `O=NN(CCCl)C(=O)NCCCl` [CARMUSTINE, 1,3-bis(2-chloroethyl)-1-nitrosourea]: in the data set with livers of rats (setting [1]), the “increased hepatocyte enlargement and increased eosinophilic granular cytoplasm” value is recorded as “mild to severe”; the “nuclear/cytoplasmic condensation” value was “mild to moderate”; the bile duct hyperplasia result is given as “moderate”. Also, in the data set on Cholestasis Signature (setting [2]), the “Sequence Projection Score (SPS)” value is 69*. Besides, in the data set with male Sprague-Dawley rats (setting [4]), the “Fold change in serum alkaline phosphatase” value is listed as 1.7 fold; the “Fold change in serum alkaline phosphatase and total bilirubin” value is reported as 8.1 fold; the “Fold change in serum total bilirubin” value is 4.6 fold.
With `Nc1ccc(Cc2ccc(N)cc2)cc1` [4,4′-DIAMINODIPHENYLMETHANE, 4,4′-diaminodiphenylmethane], the bile duct hyperplasia entry in the data set on livers of rats (setting [1]) is “moderate”. The “Sequence Projection Score (SPS)” value with Cholestasis Signature (setting [2]) was 77**. For the same molecule, in the data set with male Sprague-Dawley rats (setting [5]), the “Fold change in serum alkaline phosphatase” value is on record as 1.6 fold; the “Fold change in serum alkaline phosphatase and total bilirubin” value is given as 7.7 fold; the “Fold change in serum total bilirubin” value stood at 4.9 fold.
